For 87 molecules, melting point results are on record in a melting point compilation (Tetko et al.; mined from patent text by program, amines drawn as free bases though some values may be those of a salt).

Structures are written as SMILES.

By melting point is commonly meant the temperature of the solid-liquid transition. Regarding `CC(=O)c1ccc(OCc2ccccc2)c(CCCc2ccccc2)c1O`, the melting point was in the range of 115 to 116 °C.

For the molecule `COc1cc(C(=O)CS(C)(=O)=O)cc(OC)c1NC(C)=O`, the melting point fell in the range of 193 to 195 °C.

On to `COc1ccc2nc(-c3ccc(OC)c(F)c3)cc(C#N)c2c1`, for which the melting point was in the range of 189 to 190 °C.

Molecule `CCCc1c(OCCCSc2c(C(C)C)nn3ccccc23)ccc(C(C)=O)c1O` registered a melting point of 95 to 95.5 °C.

The molecule `COc1cccc(Oc2c(Cl)ncnc2NS(=O)(=O)c2ccc(C(C)(C)C)cc2)c1` came in with a melting point of 109 to 110 °C.

Molecule `COc1nc(C)cnc1N(C(=O)OCC(C)C)S(=O)(=O)c1cccnc1-c1ccc(C=O)cc1` yielded a melting point of 154 to 156 °C.

As for `COc1cccc(Cc2nc3n(-c4c(Cl)cc(Cl)cc4Cl)[nH]c(C(C)C)c-3c(=O)n2)c1`, the melting point fell in the range of 204 to 205 °C.

Consider `O=C(CCCCC1SCC2NC(=O)NC21)NCCOCCOCCN1C(=O)C(Br)=C(Br)C1=O` (configuration not stated), for which the melting point fell in the range of 100 to 102 °C.

`Cc1ccc(-c2nccc(C)n2)cc1`: the melting point lay in the range of 80 to 81 °C.

As for `O=C(NCC(F)(F)F)c1ccccc1C(c1ccc(O)cc1)c1ccc(O)cc1`, the melting point lay within 165 to 166 °C.

As to `CCC(C(=O)c1ccc(OCc2ccccc2)cc1)c1ccc(OCc2ccccc2)cc1` (configuration not stated), the melting point is 84 °C.

With `CS(=O)(=O)NC(=O)C(Cc1ccc(OCc2ccccc2)cc1)NC(=O)c1cn2cc(-c3ccc(Cl)cc3)ccc2n1` (configuration not stated), the melting point came to 232 °C.

As to `N#Cc1c(N2CCCCC2)cc(-c2ccc(F)cc2)c2c1Cc1ccccc1-2`, the melting point fell in the range of 130 to 132 °C.

As for `Nc1nc(I)nc2c1ncn2C1OC(CO)C(O)C1O` (configuration not stated), the melting point fell in the range of 141 to 144 °C.

In turn, `O=C(N[C@H](Cc1ccc(C(F)(F)F)cc1)[C@@H](O)c1ccc(Oc2ccccc2)cc1)c1ccc(F)c2ccccc12` (racemic) had a melting point of 184 to 185 °C.

Molecule `CN(C(=O)Cc1cccc2ccccc12)C1c2ccccc2CCC1N1CCCC1` (configuration not stated) showed a melting point of 125 °C.

On to `CCCCCCCCCCC#Cc1csc(C=O)n1`, for which the melting point lay within 25.5 to 26 °C.

In the case of `CC(=O)Nc1nc(Cl)c(NC=O)c(Cl)n1`, the melting point fell in the range of 189 to 193 °C.

Regarding `O=C(c1nc(-c2ccc(F)cc2)c(-c2ccc(F)cc2)[nH]1)C(F)(F)F`, the melting point lay within 214 to 216 °C.

`COc1ccc(C(=O)C2=C(O)C(=O)N(c3nncs3)C2c2ccc(C(C)(C)C)cc2)cc1` (configuration not stated) registered a melting point of 289 to 291 °C.

Turning to `CCS(=O)c1c(C#N)nn(-c2c(Cl)cc(C(F)(F)F)cc2Cl)c1N` (configuration not stated), the melting point lay in the range of 173 to 174 °C.

Take `Cc1cc(O)cc(C)c1N=Cc1ccc(O)cc1O`: the melting point lay in the range of 193 to 197 °C.

As for `COC(=O)c1cc(OCc2ccccc2)nn1-c1ccccc1`, the melting point is 53 to 54 °C.

In turn, `Cn1c(C(F)(F)F)cc(=O)n(-c2ccc(Cl)c(C=CC#N)c2)c1=O` had a melting point of 263 to 265 °C.

Turning to `CN(c1ccccc1[N+](=O)[O-])S(=O)(=O)c1cccnc1Cl`, the melting point stood at 180 °C.

With `CCC(=O)NC[C@@H]1C[C@H]1c1c(F)ccc2nn(C)cc12` (relative stereo), the melting point lay in the range of 158 to 159 °C.

`CCCc1ccnc2c(=O)[nH]c(-c3cc(S(=O)(=O)NCCN4CCNC4=O)ccc3OCC)nc12`: the melting point was 221 to 222 °C.

On to `O=S(=O)(c1ccc(Cl)cc1)C(CCl)Sc1ccc(Br)cc1` (configuration not stated), for which the melting point lay within 76 to 78 °C.

`CC1=NC(NC(=O)Nc2cccc(C#N)c2)C(=O)N(CC(=O)C(C)(C)C)c2ccccc21` (configuration not stated) came in with a melting point of 246 to 247 °C.

As for `CC1=CC(c2ccc(F)c(Cl)c2)C2=C(CCCC2=O)N1` (configuration not stated), the melting point was in the range of 164 to 167 °C.

`COc1cc(C(O)CCCc2ccccc2)ccc1OCc1ccccc1` (configuration not stated) came in with a melting point of 71 to 73 °C.

The molecule `CC(C)c1ccc(N(Cc2ccc(N(C)C)cc2)C(=O)C2CCCc3c(O)cccc32)cc1` (configuration not stated) came in with a melting point of 200 to 202 °C.

In turn, `CCOC(=O)C(Cc1ccc(N)s1)NC(=O)OC(C)(C)C` (racemic) yielded a melting point of 132 °C.

The molecule `CCC(=O)Oc1cc(OC)cc(OC)c1C(=O)C=Cc1ccc(SC)cc1` gave a melting point of 108 °C.

The molecule `Cn1nc(-c2ccc(F)cc2)c(-c2ccncc2)c1N` yielded a melting point of 155 to 158 °C.

In turn, `COC(=O)c1cc2c(cc1C#Cc1ccccc1)NC(=O)CC(c1cccc(C#N)c1)=N2` registered a melting point above 250 °C.

Molecule `Cc1ccc(S(=O)(=O)CCCC(=O)c2ccc(F)cc2)cc1` had a melting point of 114 to 116 °C.

On to `COc1ccc(CCCC(=O)O)c(Cl)c1Cl`, for which the melting point lay in the range of 120 to 123 °C.

As to `COc1ccc(-c2cccc(Cl)c2)cc1Cn1cncn1`, the melting point lay within 78.2 to 78.4 °C.

Consider `C=C(C)C(=O)Oc1ccc(S(=O)(=O)ON=C2CCCc3ccccc32)cc1`, for which the melting point lay in the range of 108 to 109 °C.

In the case of `Clc1cnc2cc(Cl)c(Cl)cc2n1`, the melting point was determined as 137 °C.

Turning to `NC(=O)c1cn(C(CO)c2ccccc2)cn1` (configuration not stated), the melting point fell in the range of 147 to 149 °C.

In turn, `CC(C)(CO)CCCCCC(O)CCCCC(C)(C)CO` (configuration not stated) yielded a melting point of 79 to 80 °C.

The molecule `CC(O)CN1CCN(c2cccc3c2OCCO3)CC1` (configuration not stated) displayed a melting point of 92 °C.

On to `COC(=O)c1cc(NS(C)(=O)=O)c2cc(Cc3ccc(F)cc3)cnc2c1O`, for which the melting point came to 190 °C.

On to `CCOC(=O)Nc1c([N+](=O)[O-])cc(C)c(C)c1[N+](=O)[O-]`, for which the melting point was 51 to 54 °C.

`CCCCCCCCCCCCC1=C(O)C(=O)c2c(C)cccc2C1=O`: the melting point was 92 to 93 °C.

In turn, `COc1ccc(OCCOS(N)(=O)=O)cc1` came in with a melting point of 84 to 87 °C.

`O=C(c1ccccc1)c1ccc(Cl)cc1Cl` displayed a melting point of 41 to 43 °C.

In turn, `COC(=O)Cc1ccc2nc(C(F)(F)F)cc(Cl)c2c1` had a melting point of 108 to 109 °C.

`CS(=O)(=O)NCc1cc(-c2ccccc2)c2c(n1)OCCN(Cc1cc(C(F)(F)F)cc(C(F)(F)F)c1)C2=O`: the melting point lay within 194 to 195 °C.

In turn, `Cc1c(C(=O)O)sc2c(Br)cccc12` yielded a melting point of 311 to 312 °C.

Turning to `Cc1ccc(S(=O)(=O)N(OC(C)C)c2ccc([N+](=O)[O-])cc2Cl)cc1`, the melting point is 160 to 162 °C.

`O=S(=O)(c1ccc(OCCCBr)cc1)c1c(-c2ccccc2)cn2ccccc12` yielded a melting point of 199 °C.

Regarding `CC(C(=O)c1ccncc1)c1ccc(C2=CCCCC2)cc1` (configuration not stated), the melting point was in the range of 88 to 90 °C.

The molecule `Nc1ccccc1CCN1CCCCC1` came in with a melting point of 36 to 38 °C.

As for `Cc1ccc(C(=O)NCC(=O)N2CC2C#N)cc1` (configuration not stated), the melting point fell in the range of 92 to 94 °C.

Take `CC1=C(CC(NC(=O)c2ccc(Cl)cc2)NC(=NC#N)Nc2cccnc2)C(C)(C)CCC1` (configuration not stated): the melting point was in the range of 95 to 96 °C.

The molecule `COC(=O)c1ccc(Cl)c(C2(O)C(=O)N(Cc3ccc(OC)cc3OC)c3ccccc32)c1` (configuration not stated) gave a melting point of 172 °C.

Molecule `COc1cc(-c2ccc(O)c(C3(C)CCCCC3)c2)cc(CC2SC(N3CCOCC3)=NC2=O)c1OC` (configuration not stated) returned a melting point of 210 to 213 °C.

As for `Nc1ccc(NC(=O)Nn2cnc3ccccc3c2=O)cc1`, the melting point was above 305 °C.

In the case of `CC(C)c1nn2ccccc2c1C=O`, the melting point was in the range of 81 to 81.5 °C.

The molecule `CCCCCCCCCCCCCCCCOC(=O)c1ccc(-c2ncc[nH]2)nc1` had a melting point of 97 to 98 °C.

In turn, `CCOC(=O)Cn1c(C(=O)NCc2nnc(CO)n2-c2sc(CC)cc2C(=O)c2ccccc2Cl)cc2ccccc21` yielded a melting point of 92 to 96 °C.

`C#CC1(O)CCC2C3CCC4=CC(=O)C=CC4(C)C3CCC21C` (configuration not stated): the melting point is 218 to 219 °C.

As to `COC(=O)c1ccc(C(=O)NCc2cc(OC)cc(OC)c2)cc1Cl`, the melting point was in the range of 101 to 103 °C.

`CC1(C)CC(OC(=O)CCCCCNC(=O)OC2CC(C)(C)NC(C)(C)C2)CC(C)(C)N1`: the melting point is 59 to 62 °C.

`CCN(C(=O)C(C)Cl)c1cn(-c2cccnc2)nc1Cl` (configuration not stated) had a melting point of 94 to 105 °C.

`C[C@@H](O)CNC(=O)N1CC(Oc2ccc(C(C)(C)C)cc2)C1` displayed a melting point of 104 to 105 °C.

The molecule `NC(=O)N(O)Cc1cccc(C(O)C#Cc2ccsc2)c1` (configuration not stated) gave a melting point of 151 °C.

`CCOc1cccc(-n2cnc(-c3nc(CC)no3)c2)c1` displayed a melting point of 120 to 121 °C.

Turning to `COCc1cnn(-c2c(Cl)cc(C(F)(F)F)cc2Cl)n1`, the melting point was in the range of 32 to 33 °C.

With `COc1cc(-n2cnc3cc(-c4ccc(Cl)cc4)sc3c2=O)ccc1OC[C@H](O)C1CC1`, the melting point fell in the range of 178 to 179 °C.

`CN1C=C(C(=O)O)C(C(=N)O)=NC1N1CCN(Cc2ccccc2)CC1` (configuration not stated) registered a melting point of 158 to 160 °C.

On to `Cc1ccc(S(=O)(=O)n2ccc3c(C=O)cccc32)cc1`, for which the melting point was in the range of 144 to 146 °C.

As for `Cc1c(Cc2ccc(C(C)C)cc2)c2c(c(C)c1NC(=O)CC(C)(C)C)C(c1ccc(C(C)C)cc1)CO2` (configuration not stated), the melting point fell in the range of 157 to 158 °C.

Molecule `COC(=O)C1=C(C)NC(C)=C(C(=O)OCCN2CCN(C(c3ccc(OC)cc3)c3ccc(OC)cc3)CC2)C1c1cccc([N+](=O)[O-])c1` (configuration not stated) came in with a melting point of 76 to 80 °C.

`COCCn1c(Oc2ccc(-n3c4ncccc4n4ccnc34)cc2)nc2cccnc21` returned a melting point of 178 to 182 °C.

Turning to `Fc1ccc2[nH]cc(C3=CCN(CC4COc5cccnc5O4)CC3)c2c1` (configuration not stated), the melting point amounted to 124 °C.

For the molecule `CCCCCNS(N)(=O)=O`, the melting point is 60 to 63 °C.

In the case of `O=[N+]([O-])c1cc2nc(O)c(O)nc2c2scnc12`, the melting point was above 360 °C.

`CCOC(=O)C(C)(C)c1nsc2ccc(-n3c(=O)cc(C(F)(F)F)n(C)c3=O)cc12` gave a melting point of 164 to 167 °C.

Molecule `Nc1cc(C(=O)OC2CCCC2)c(Cl)cc1F` had a melting point of 61 to 62 °C.

Molecule `CCOc1ccc2c(c1)n(C1CCCCC1)c(=O)n2Cc1ccc(C(=O)NC(C)(C)CC)cc1OC` came in with a melting point of 164 °C.

`CCCCCCCCCCCCCCCCCCOc1ccc(C(=O)C(Sc2nnnn2-c2ccccc2)c2ccc([N+](=O)[O-])cc2)cc1` (configuration not stated) came in with a melting point of 82 to 95 °C.

For `COC(=O)c1ccc(C(F)(F)F)[nH]c1=O`, the melting point was in the range of 63 to 64 °C.

`c1cnc2c(c1)NCC2` returned a melting point of 63 °C.
